Measurements as given in patent US20240300980A1, “HETEROCYCLIC COMPOUNDS AS KRAS INHIBITOR, AND PREPARATION THEREFOR AND USE THEREOF IN TREATMENT” (SHANGHAI KECHOW PHARMA, INC., priority 2021, published 2024).

The compounds below were run on AGS cells (KRAS^G12D) (assay: Detection of cell proliferation in vitro by MTT/MTS method (cell activity experiment)). Conditions: Homo sapiens, AGS, 72 h, AGS cells; MTT/MTS; 3 days of drug treatment; read-out: AGS IC50.
Type: cell-based
Method in brief: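 After 3-day compound exposure (final DMSO 0.5%), viability of AGS (KRAS G12D) cells, plated 1000/well one day before dosing, was measured at 490 nm following 4 h MTT or MTS incubation. IC50 was fitted from dose–effect curves relative to DMSO-treated wells.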

SMILES	IC50
C#Cc1c(F)ccc2cc(O)cc(-c3ncc4c(N5CC6CCC(C5)C6[S+](C)[O-])nc(OC[C@@]56CCCN5C[C@H](F)C6)nc4c3F)c12 (stereo partly drawn) [Example 65, 5-ethynyl-6-fluoro-4-(8-fluoro-2-(((2R,7aS)-2-fluorotetrahydro-1H-pyrrolizin-7a(5H)-yl)methoxy)-4-((1R,5S, 8R)-8-(methylsulfinyl)-3-azabicyclo[3.2.1]octan-3-yl)pyrido[4,3-d]pyrimidin-7-yl) naphthalen-2-ol]	> 10000 nM
C#Cc1c(F)ccc2cc(O)cc(-c3ncc4c(N5CC6CCC(C5)C6S(C)(=O)=O)nc(OC[C@@]56CCCN5C[C@H](F)C6)nc4c3F)c12 (stereo partly drawn) [Example 66, 5-ethynyl-6-fluoro-4-(8-fluoro-2-(((2R,7aS)-2-fluorotetrahydro-1H-pyrrolizin-7a(5H)-yl)methoxy)-4-((1R,5S, 8R)-8-(methylsulfonyl)-3-azabicyclo[3.2.1]octan-3-yl)pyrido[4,3-d]pyrimidin-7-yl) naphthalen-2-ol]	> 10000 nM
C#Cc1c(F)ccc2cc(O)cc(-c3ncc4c(N5CC6CCC(C5)C6S(=O)(=O)C(F)(F)F)nc(OC[C@@]56CCCN5C[C@H](F)C6)nc4c3F)c12 (stereo partly drawn) [Example 67, 5-ethynyl-6-fluoro-4-(8-fluoro-2-(((2R,7aS)-2-fluorotetrahydro-1H-pyrrolizin-7a(5H)-yl)methoxy)-4-((1R,5S, 8R)-8-((trifluoromethyl)sulfonyl)-3-azabicyclo[3.2.1]octan-3-yl)pyrido[4,3-d]pyrimidin-7-yl)naphthalen-2-ol]	> 10000 nM
C#Cc1c(F)ccc2cc(O)cc(-c3ncc4c(N5CCC(C#N)CC5)nc(OC[C@@]56CCCN5C[C@H](F)C6)nc4c3F)c12 [Example 68, 1-(7-(8-ethynyl-7-fluoro-3-hydroxynaphthalen-1-yl)-8-fluoro-2-(((2R, 7aS)-2-fluorotetrahydro-1H-pyrrolizin-7a(5H)-yl)methoxy)pyrido[4,3-d]pyrimidin-4-yl)piperidine-4-carbonitrile]	1290 nM
C#Cc1c(F)ccc2cc(O)cc(-c3ncc4c(N5CC(C#N)C5)nc(OC[C@@]56CCCN5C[C@H](F)C6)nc4c3F)c12 [Example 69, 1-(7-(8-ethynyl-7-fluoro-3-hydroxynaphthalen-1-yl)-8-fluoro-2-(((2R, 7aS)-2-fluorotetrahydro-1H-pyrrolizin-7a(5H)-yl)methoxy)pyrido[4,3-d]pyrimidin-4-yl) azetidine-3-carbonitrile]	411 nM
C#Cc1c(F)ccc2cc(O)cc(-c3ncc4c(N5CC6(CNC6)C5)nc(OC[C@@]56CCCN5C[C@H](F)C6)nc4c3F)c12 [Example 70, 5-ethynyl-6-fluoro-4-(8-fluoro-2-(((2R, 7aS)-2-fluorotetrahydro-1H-pyrrolizin-7a(5H)-yl)methoxy)-4-(2,6-diazaspiro[3.3]heptan-2-yl)pyrido[4,3-d]pyrimidin-7-yl)naphthalen-2-ol]	> 2500 nM
C#Cc1c(F)ccc2cc(O)cc(-c3ncc4c(C56CCN(CC5)CC6)nc(OC[C@@]56CCCN5C[C@H](F)C6)nc4c3F)c12 [Example 71, 5-ethynyl-6-fluoro-4-(8-fluoro-2-(((2R, 7aS)-2-fluorotetrahydro-1H-pyrrolizin-7a(5H)-yl)methoxy)-4-(quinuclidin-4-yl)pyrido[4,3-d]pyrimidin-7-yl) naphthalen-2-ol]	> 2500 nM
Cc1cc(N)nc(-c2ncc3c(N4C[C@H]5CC[C@@H](C4)N5)nc(OC[C@@]45CCCN4C[C@H](F)C5)nc3c2F)c1C1CC1 [Example 72, 6-(4-((1R,5S)-3,8-diazabicyclo[3.2.1]octan-3-yl)-8-fluoro-2-(((2R,7aS)-2-fluorotetrahydro-1H-pyrrolizin-7a(5H)-yl)methoxy)pyrido[4,3-d]pyrimidin-7-yl)-5-cyclopropyl-4-methylpyridin-2-amine]	> 2500 nM
Oc1cc2c(c(-c3ncc4c(N5C[C@H]6CC[C@@H](C5)N6)nc(OC[C@@]56CCCN5C[C@H](F)C6)nc4c3F)c1)C1CC1C2 (stereo partly drawn) [Example 73, 2-(4-((1R,5S)-3,8-diazabicyclo[3.2.1]octan-3-yl)-8-fluoro-2-(((2R,7aS)-2-fluorotetrahydro-1H-pyrrolizin-7a(5H)-yl)methoxy)pyrido[4,3-d]pyrimidin-7-yl)-1,1a, 6,6a-tetrahydrocyclopropa [a]inden-4-ol]	16.9 nM
C#Cc1c(F)ccc2cc(O)cc(-c3ncc4c(N5C[C@H]6CC[C@@H](C5)N6)nc(OCC56CCCC5N(C)CC6)nc4c3F)c12 (stereo partly drawn) [Example 74, 4-(4-((1R,5S)-3,8-diazabicyclo [3.2.1]octan-3-yl)-8-fluoro-2-((1-methylhexahydrocyclo-penta[b]pyrrol-3a(1H)-yl)methoxy)pyrido[4,3-d]pyrimidin-7-yl)-5-ethynyl-6-fluoronaphthalen-2-ol]	> 2500 nM
C#Cc1c(F)ccc2cc(O)cc(-c3ncc4c(N5C[C@H]6CC[C@@H](C5)N6)nc(OCC56CCN(C)C5COC6)nc4c3F)c12 (stereo partly drawn) [Example 75, 4-(4-((1R,5S)-3,8-diazabicyclo[3.2.1]octan-3-yl)-8-fluoro-2-((1-methyltetrahydro-1H-furo[3,4-b]pyrrol-3a(4H)-yl)methoxy)pyrido[4,3-d]pyrimidin-7-yl)-5-ethynyl-6-fluoronaphthalen-2-ol]	> 2500 nM
C#Cc1c(F)ccc2cc(O)cc(-c3ncc4c(N5C[C@H]6CC[C@@H](C5)N6)nc(OCC56CC5CN(C)C6)nc4c3F)c12 (stereo partly drawn) [Example 76, 4-(4-((1R,5S)-3,8-diazabicyclo[3.2.1]octan-3-yl)-8-fluoro-2-((3-methyl-3-azabicyclo [3.1.0]hexan-1-yl)methoxy)pyrido[4,3-d]pyrimidin-7-yl)-5-ethynyl-6-fluoronaphthalen-2-ol]	> 2500 nM
C#Cc1c(F)ccc2cc(O)cc(-c3ncc4c(N5C[C@H]6CC[C@@H](C5)N6)nc(OCC56CC5CCN6C)nc4c3F)c12 (stereo partly drawn) [Example 77, 4-(4-((1R,5S)-3,8-diazabicyclo[3.2.1]octan-3-yl)-8-fluoro-2-((2-methyl-2-azabicyclo[3.1.0]hexan-1-yl)methoxy)pyrido [4,3-d]pyrimidin-7-yl)-5-ethynyl-6-fluoronaphthalen-2-ol]	> 2500 nM
Oc1cc(-c2ncc3c(C4C[C@H]5CC[C@@H](C4)N5)nc(OC[C@@]45CCCN4C[C@H](F)C5)nc3c2F)c2c(F)c(F)ccc2c1 (stereo partly drawn) [Example 78, 4-(4-((1R,5S)-8-azabicyclo[3.2.1]octan-3-yl)-8-fluoro-2-(((2R,7aS)-2-fluorotetrahydro-1H-pyrrolizin-7a(5H)-yl)methoxy)pyrido[4,3-d]pyrimidin-7-yl)-5,6-difluoronaphthalen-2-ol]	> 2500 nM
C#Cc1c(F)ccc2cc(O)cc(-c3ncc4c(C5C[C@H]6CC[C@@H](C5)N6)nc(OC[C@@]56CCCN5C[C@H](F)C6)nc4c3F)c12 (stereo partly drawn) [Example 79, 4-(4-((1R,5S)-8-azabicyclo[3.2.1]octan-3-yl)-8-fluoro-2-(((2R,7aS)-2-fluorotetrahydro-1H-pyrrolizin-7a(5H)-yl)methoxy)pyrido[4,3-d]pyrimidin-7-yl)-5-ethynyl-6-fluoronaphthalen-2-ol]	> 2500 nM
CCc1c(F)ccc2cc(O)cc(-c3ncc4c(C5C[C@H]6CC[C@@H](C5)N6)nc(OC[C@@]56CCCN5C[C@H](F)C6)nc4c3F)c12 (stereo partly drawn) [Example 80, 4-(4-((1R,5S)-8-azabicyclo[3.2.1]octan-3-yl)-8-fluoro-2-(((2R,7aS)-2-fluorotetrahydro-1H-pyrrolizin-7a(5H)-yl)methoxy)pyrido[4,3-d]pyrimidin-7-yl)-5-ethyl-6-fluoronaphthalen-2-ol]	> 2500 nM
CCc1cccc2cc(O)cc(-c3ncc4c(C5C[C@H]6CC[C@@H](C5)N6)nc(OC[C@@]56CCCN5C[C@H](F)C6)nc4c3F)c12 (stereo partly drawn) [Example 81, 4-(4-((1R,5S)-8-azabicyclo[3.2.1]octan-3-yl)-8-fluoro-2-(((2R,7aS)-2-fluorotetrahydro-1H-pyrrolizin-7a(5H)-yl)methoxy)pyrido [4,3-d]pyrimidin-7-yl)-5-ethylnaphthalen-2-ol]	> 2500 nM
Oc1cc(-c2ncc3c(C4C[C@H]5CC[C@@H](C4)N5)nc(OC[C@@]45CCCN4C[C@H](F)C5)nc3c2F)c2c(F)cccc2c1 (stereo partly drawn) [Example 82, 4-(4-((1R,5S)-8-azabicyclo[3.2.1]octan-3-yl)-8-fluoro-2-(((2R,7aS)-2-fluorotetrahydro-1H-pyrrolizin-7a(5H)-yl)methoxy)pyrido [4,3-d]pyrimidin-7-yl)-5-fluoronaphthalen-2-ol]	> 2500 nM
C#Cc1cccc2cc(O)cc(-c3ncc4c(C5C[C@H]6CC[C@@H](C5)N6)nc(OC[C@@]56CCCN5C[C@H](F)C6)nc4c3F)c12 (stereo partly drawn) [Example 83, 4-(4-((1R,5S)-8-azabicyclo[3.2.1]octan-3-yl)-8-fluoro-2-(((2R,7aS)-2-fluorotetrahydro-1H-pyrrolizin-7a(5H)-yl)methoxy)pyrido [4,3-d]pyrimidin-7-yl)-5-ethynylnaphthalen-2-ol]	> 2500 nM
C#Cc1c(F)ccc2cc(O)cc(-c3ncc4c(C5CCN(C(=O)CO)C5)nc(OC[C@@]56CCCN5C[C@H](F)C6)nc4c3F)c12 (stereo partly drawn) [Example 84, 1-(3-(7-(8-ethynyl-7-fluoro-3-hydroxynaphthalen-1-yl)-8-fluoro-2-(((2R,7aS)-2-fluorotetrahydro-1H-pyrrolizin-7a(5H)-yl)methoxy)pyrido[4,3-d]pyrimidin-4-yl)pyrrolidin-1-yl)-2-hydroxyethan-1-one]	> 10000 nM
O=C(CO)N1CCC(c2nc(OC[C@@]34CCCN3C[C@H](F)C4)nc3c(F)c(-c4cc(O)cc5ccc(F)c(F)c45)ncc23)C1 (stereo partly drawn) [Example 85, 1-(3-(7-(7,8-difluoro-3-hydroxynaphthalen-1-yl)-8-fluoro-2-(((2R,7aS)-2-fluorotetrahydro-1H-pyrrolizin-7a(5H)-yl)methoxy)pyrido[4,3-d]pyrimidin-4-yl)pyrrolidin-1-yl)-2-hydroxyethan-1-one]	> 1000 nM
C#Cc1c(F)ccc2cc(O)cc(-c3ncc4c(-c5ccn(C(=O)CO)c5)nc(OC[C@@]56CCCN5C[C@H](F)C6)nc4c3F)c12 [Example 86, 1-(3-(7-(8-ethynyl-7-fluoro-3-hydroxynaphthalen-1-yl)-8-fluoro-2-(((2R, 7aS)-2-fluorotetrahydro-1H-pyrrolizin-7a(5H)-yl)methoxy)pyrido[4,3-d]pyrimidin-4-yl)-1H-pyrrol-1-yl)-2-hydroxyethan-1-one]	> 10000 nM
